Assay results as given in US20090098130A1, “GLUCAGON-LIKE PROTEIN-1 RECEPTOR (GLP-1R) AGONIST COMPOUNDS” (priority 2007, published 2009).
Non-standard residues stand in square brackets, D forms with d. Residues, ends and D or L forms follow the SMILES beside them. Aib = CC(C)(N)C(=O)O

Test system: pancreatic β cells
Experiment: glucose-stimulated insulin secretion (GSIS) assay
Format: cell-based
Settings: GA targeting agent-linker conjugate; GSIS assay in vitro
Experimental: Briefly, glucose and GA targeting peptide was added at various concentrations to pancreatic β cell cultures, and insulin secretion was detected by measuring insulin levels over time. EC50 was calculated for each peptide.
The ability of these GA targeting agent-linker conjugates to stimulate […] secretion in vitro was measured using the GSIS assay described in Example 27. […] Each of these peptides contained a side-chain modified Lys residue according to the scheme illustrated in FIG. 30 at a different position.

Question: `CC[C@H](C)[C@H](NC(=O)[C@H](Cc1ccccc1)NC(=O)[C@H](CCC(=O)O)NC(=O)[C@H](CCCCN)NC(=O)[C@H](C)NC(=O)[C@H](C)NC(=O)[C@H](CCC(N)=O)NC(=O)CNC(=O)[C@H](CCC(=O)O)NC(=O)[C@H](CC(C)C)NC(=O)[C@H](Cc1ccc(O)cc1)NC(=O)[C@H](CO)NC(=O)[C@H](CO)NC(=O)[C@@H](NC(=O)[C@H](CC(=O)O)NC(=O)[C@H](CO)NC(=O)[C@@H](NC(=O)[C@H](Cc1ccccc1)NC(=O)[C@@H](NC(=O)CNC(=O)[C@H](CCC(=O)O)NC(=O)CNC(=O)[C@H](Cc1c[nH]cn1)NC(=O)CCOCCOCCOCCOCCNC(=O)CCCC(=O)Nc1ccc(CCC(=O)CC(C)=O)cc1)[C@@H](C)O)[C@@H](C)O)C(C)C)C(=O)N[C@@H](C)C(=O)N[C@@H](Cc1c[nH]c2ccccc12)C(=O)N[C@@H](CC(C)C)C(=O)N[C@H](C(=O)N[C@@H](CCCCN)C(=O)NCC(=O)N[C@@H](CCCNC(=N)N)C(=O)N[C@@H](CCCCN)C(N)=O)C(C)C` was tested. Which EC50 did it give?
Answer: < 10 µM

Question: How did the EC50 turn out when `CC/C=C/CC(=O)N[C@@H](Cc1c[nH]cn1)C(=O)NC(C)(C)C(=O)N[C@@H](CCC(=O)O)C(=O)NCC(=O)N[C@H](C(=O)N[C@@H](Cc1ccccc1)C(=O)N[C@H](C(=O)N[C@@H](CO)C(=O)N[C@@H](CC(=O)O)C(=O)N[C@H](C(=O)N[C@@H](CO)C(=O)N[C@@H](CO)C(=O)N[C@@H](Cc1ccc(O)cc1)C(=O)N[C@@H](CC(C)C)C(=O)N[C@@H](CCC(=O)O)C(=O)N[C@@H](CCC(=O)O)C(=O)N[C@@H](CCC(N)=O)C(=O)N[C@@H](C)C(=O)N[C@H](C(=O)N[C@@H](CCCCN)C(=O)N[C@@H](CCC(=O)O)C(=O)N[C@@H](Cc1ccccc1)C(=O)N[C@H](C(=O)N[C@@H](C)C(=O)N[C@@H](Cc1c[nH]c2ccccc12)C(=O)N[C@@H](CC(C)C)C(=O)N[C@H](C(=O)N[C@@H](CCCCN)C(=O)NC(C)(C)C(=O)N[C@@H](CCCNC(=N)N)C(N)=O)[C@@H](C)CC)[C@@H](C)CC)C(C)C)C(C)C)[C@@H](C)O)[C@@H](C)O` was run?
Answer: < 10 µM

Question: Which EC50 does the source give for `CC[C@H](C)[C@H](NC(=O)[C@H](Cc1ccccc1)NC(=O)[C@H](CCC(=O)O)NC(=O)[C@H](CCCCN)NC(=O)[C@@H](NC(=O)[C@H](C)NC(=O)[C@H](CCC(N)=O)NC(=O)[C@H](CCC(=O)O)NC(=O)[C@H](CCC(=O)O)NC(=O)[C@H](CC(C)C)NC(=O)[C@H](Cc1ccc(O)cc1)NC(=O)[C@H](CO)NC(=O)[C@H](CO)NC(=O)[C@@H](NC(=O)[C@H](CC(=O)O)NC(=O)[C@H](CO)NC(=O)[C@@H](NC(=O)[C@H](Cc1ccccc1)NC(=O)[C@@H](NC(=O)CNC(=O)[C@H](CCC(=O)O)NC(=O)C(C)(C)NC(=O)[C@H](Cc1c[nH]cn1)NC(=O)Cc1cccc(N)c1)[C@@H](C)O)[C@@H](C)O)C(C)C)C(C)C)C(=O)N[C@@H](C)C(=O)N[C@@H](Cc1c[nH]c2ccccc12)C(=O)N[C@@H](CC(C)C)C(=O)N[C@H](C(=O)N[C@@H](CCCCN)C(=O)NC(C)(C)C(=O)N[C@@H](CCCNC(=N)N)C(N)=O)[C@@H](C)CC` here?
Answer: < 10 µM

Same assay, conditions: GA targeting peptide; insulin secretion from pancreatic β cell cultures in vitro with glucose

Question: With `CC[C@H](C)[C@H](NC(=O)[C@H](Cc1ccccc1)NC(=O)[C@H](CCC(=O)O)NC(=O)[C@H](CCCCN)NC(=O)[C@H](C)NC(=O)[C@H](C)NC(=O)[C@H](CCC(N)=O)NC(=O)CNC(=O)[C@H](CCC(=O)O)NC(=O)[C@H](CC(C)C)NC(=O)[C@H](Cc1ccc(O)cc1)NC(=O)[C@H](CO)NC(=O)[C@H](CO)NC(=O)[C@@H](NC(=O)[C@H](CC(=O)O)NC(=O)[C@H](CO)NC(=O)[C@@H](NC(=O)[C@H](Cc1ccccc1)NC(=O)[C@@H](NC(=O)CNC(=O)[C@H](CCC(=O)O)NC(=O)[C@H](C)NC(=O)[C@@H](N)Cc1c[nH]cn1)[C@@H](C)O)[C@@H](C)O)C(C)C)C(=O)N[C@@H](C)C(=O)N[C@@H](Cc1c[nH]c2ccccc12)C(=O)N[C@@H](CC(C)C)C(=O)N[C@H](C(=O)N[C@@H](CCCCN)C(=O)NCC(=O)N[C@@H](CCCNC(=N)N)C(N)=O)C(C)C` [SEQ ID NO: 1, reference compound] as the molecule, how does the EC50 read?
Answer: < 10 µM

Question: `CC[C@H](C)[C@H](NC(=O)[C@H](Cc1ccccc1)NC(=O)[C@H](CCC(=O)O)NC(=O)[C@H](CCCCN)NC(=O)[C@H](C)NC(=O)[C@H](C)NC(=O)[C@H](CCC(N)=O)NC(=O)CNC(=O)[C@H](CCC(=O)O)NC(=O)CNC(=O)[C@H](Cc1ccc(O)cc1)NC(=O)[C@H](CO)NC(=O)[C@H](CO)NC(=O)[C@@H](NC(=O)[C@H](CC(=O)O)NC(=O)[C@H](CO)NC(=O)[C@@H](NC(=O)[C@H](Cc1ccccc1)NC(=O)[C@@H](NC(=O)CNC(=O)[C@H](CCC(=O)O)NC(=O)C(C)(C)NC(=O)[C@@H](N)Cc1c[nH]cn1)[C@@H](C)O)[C@@H](C)O)C(C)C)C(=O)N[C@@H](C)C(=O)N[C@@H](Cc1c[nH]c2ccccc12)C(=O)N[C@@H](CC(C)C)C(=O)N[C@H](C(=O)N[C@@H](CCCCN)C(=O)NC(C)(C)C(=O)N[C@@H](CCCNC(=N)N)C(N)=O)C(C)C` [SEQ ID NO: 40] (H-H[Aib]EGTFTSDVSSYGEGQAAKEFIAWLVK[Aib]R-NH2) was tested. Which EC50 did it give?
Answer: < 10 µM

Question: `CC[C@H](C)[C@H](NC(=O)[C@H](Cc1ccccc1)NC(=O)[C@H](CCC(=O)O)NC(=O)[C@H](CCCCN)NC(=O)[C@H](C)NC(=O)[C@H](C)NC(=O)[C@H](CCC(N)=O)NC(=O)CNC(=O)[C@H](CCC(=O)O)NC(=O)[C@H](CS)NC(=O)[C@H](Cc1ccc(O)cc1)NC(=O)[C@H](CO)NC(=O)[C@H](CO)NC(=O)[C@@H](NC(=O)[C@H](CC(=O)O)NC(=O)[C@H](CO)NC(=O)[C@@H](NC(=O)[C@H](Cc1ccccc1)NC(=O)[C@@H](NC(=O)CNC(=O)[C@H](CCC(=O)O)NC(=O)C(C)(C)NC(=O)[C@@H](N)Cc1c[nH]cn1)[C@@H](C)O)[C@@H](C)O)C(C)C)C(=O)N[C@@H](C)C(=O)N[C@@H](Cc1c[nH]c2ccccc12)C(=O)N[C@@H](CC(C)C)C(=O)N[C@H](C(=O)N[C@@H](CCCCN)C(=O)NC(C)(C)C(=O)N[C@@H](CCCNC(=N)N)C(N)=O)C(C)C` [SEQ ID NO: 41] (H-H[Aib]EGTFTSDVSSYCEGQAAKEFIAWLVK[Aib]R-NH2) was tested. Which EC50 did it give?
Answer: < 10 µM

Question: For `CC[C@H](C)[C@H](NC(=O)[C@H](Cc1ccccc1)NC(=O)[C@H](CCC(=O)O)NC(=O)[C@H](CCCCN)NC(=O)[C@H](C)NC(=O)[C@H](C)NC(=O)[C@H](CCC(N)=O)NC(=O)CNC(=O)[C@H](CCC(=O)O)NC(=O)[C@H](Cc1ccccc1)NC(=O)[C@H](Cc1ccc(O)cc1)NC(=O)[C@H](CO)NC(=O)[C@H](CO)NC(=O)[C@@H](NC(=O)[C@H](CC(=O)O)NC(=O)[C@H](CO)NC(=O)[C@@H](NC(=O)[C@H](Cc1ccccc1)NC(=O)[C@@H](NC(=O)CNC(=O)[C@H](CCC(=O)O)NC(=O)C(C)(C)NC(=O)[C@@H](N)Cc1c[nH]cn1)[C@@H](C)O)[C@@H](C)O)C(C)C)C(=O)N[C@@H](C)C(=O)N[C@@H](Cc1c[nH]c2ccccc12)C(=O)N[C@@H](CC(C)C)C(=O)N[C@H](C(=O)N[C@@H](CCCCN)C(=O)NC(C)(C)C(=O)N[C@@H](CCCNC(=N)N)C(N)=O)C(C)C` [SEQ ID NO: 42] (H-H[Aib]EGTFTSDVSSYFEGQAAKEFIAWLVK[Aib]R-NH2), which EC50 is on record?
Answer: < 10 µM

Question: `CC[C@H](C)[C@H](NC(=O)[C@H](Cc1ccccc1)NC(=O)[C@H](CCC(=O)O)NC(=O)[C@H](CCCCN)NC(=O)[C@H](C)NC(=O)[C@H](C)NC(=O)[C@H](CCC(N)=O)NC(=O)CNC(=O)[C@H](CCC(=O)O)NC(=O)[C@H](Cc1ccc(O)cc1)NC(=O)[C@H](Cc1ccc(O)cc1)NC(=O)[C@H](CO)NC(=O)[C@H](CO)NC(=O)[C@@H](NC(=O)[C@H](CC(=O)O)NC(=O)[C@H](CO)NC(=O)[C@@H](NC(=O)[C@H](Cc1ccccc1)NC(=O)[C@@H](NC(=O)CNC(=O)[C@H](CCC(=O)O)NC(=O)C(C)(C)NC(=O)[C@@H](N)Cc1c[nH]cn1)[C@@H](C)O)[C@@H](C)O)C(C)C)C(=O)N[C@@H](C)C(=O)N[C@@H](Cc1c[nH]c2ccccc12)C(=O)N[C@@H](CC(C)C)C(=O)N[C@H](C(=O)N[C@@H](CCCCN)C(=O)NC(C)(C)C(=O)N[C@@H](CCCNC(=N)N)C(N)=O)C(C)C` [SEQ ID NO: 43] (H-H[Aib]EGTFTSDVSSYYEGQAAKEFIAWLVK[Aib]R-NH2) was tested. Which EC50 did it give?
Answer: < 10 µM

Question: For `CC[C@H](C)[C@H](NC(=O)[C@H](Cc1ccccc1)NC(=O)[C@H](CCC(=O)O)NC(=O)[C@H](CCCCN)NC(=O)[C@H](C)NC(=O)[C@H](C)NC(=O)[C@H](CCC(N)=O)NC(=O)CNC(=O)[C@H](CCC(=O)O)NC(=O)[C@H](Cc1c[nH]c2ccccc12)NC(=O)[C@H](Cc1ccc(O)cc1)NC(=O)[C@H](CO)NC(=O)[C@H](CO)NC(=O)[C@@H](NC(=O)[C@H](CC(=O)O)NC(=O)[C@H](CO)NC(=O)[C@@H](NC(=O)[C@H](Cc1ccccc1)NC(=O)[C@@H](NC(=O)CNC(=O)[C@H](CCC(=O)O)NC(=O)C(C)(C)NC(=O)[C@@H](N)Cc1c[nH]cn1)[C@@H](C)O)[C@@H](C)O)C(C)C)C(=O)N[C@@H](C)C(=O)N[C@@H](Cc1c[nH]c2ccccc12)C(=O)N[C@@H](CC(C)C)C(=O)N[C@H](C(=O)N[C@@H](CCCCN)C(=O)NC(C)(C)C(=O)N[C@@H](CCCNC(=N)N)C(N)=O)C(C)C` [SEQ ID NO: 44] (H-H[Aib]EGTFTSDVSSYWEGQAAKEFIAWLVK[Aib]R-NH2), which EC50 is on record?
Answer: < 10 µM

Question: How did the EC50 turn out when `CC[C@H](C)[C@H](NC(=O)[C@H](Cc1ccccc1)NC(=O)[C@H](CCC(=O)O)NC(=O)[C@H](CCCCN)NC(=O)[C@H](C)NC(=O)[C@H](C)NC(=O)[C@H](CCC(N)=O)NC(=O)[C@H](CCC(=O)O)NC(=O)[C@H](CCC(=O)O)NC(=O)[C@H](CC(C)C)NC(=O)[C@H](Cc1ccc(O)cc1)NC(=O)[C@H](CO)NC(=O)[C@H](CO)NC(=O)[C@@H](NC(=O)[C@H](CC(=O)O)NC(=O)[C@H](CO)NC(=O)[C@@H](NC(=O)[C@H](Cc1ccccc1)NC(=O)[C@@H](NC(=O)CNC(=O)[C@H](CCC(=O)O)NC(=O)C(C)(C)NC(=O)[C@@H](N)Cc1c[nH]cn1)[C@@H](C)O)[C@@H](C)O)C(C)C)C(=O)N[C@@H](C)C(=O)N[C@@H](Cc1c[nH]c2ccccc12)C(=O)N[C@@H](CC(C)C)C(=O)N[C@H](C(=O)N[C@@H](CCCCN)C(=O)NC(C)(C)C(=O)N[C@@H](CCCNC(=N)N)C(N)=O)C(C)C` [SEQ ID NO: 45] (H-H[Aib]EGTFTSDVSSYLEEQAAKEFIAWLVK[Aib]R-NH2) was run?
Answer: < 10 µM
